Measured values as given in patent US12233070B2, “Methods for treating benzodiazepine misuse/use disorder” (University of M[…] Center, priority 2020, dated 2025).

Tests used:
rhesus monkeys [1] = conditions: visual recognition memory and spatial working memory; cited from earlier work
rhesus monkeys [2] = experiment: i.v. self-administration under progressive-ratio (PR) schedule; format: in vivo, rhesus monkey; conditions: dose at which self-administration was highest; n=4 monkeys; FIG. 5
From the text: The abuse potential of novel compounds can be determined by use of i.v. self-administration procedures, in which a compound is available to a subject previously trained to press a lever to obtain a known drug of abuse. Our standard procedure is to use a progressive-ratio (PR) schedule, in which an increasing number of responses are required to obtain an injection. The last response requirement completed is referred to as a “break point” (BP) and represents the maximum amount of “work” a subject will perform to obtain the drug or compound.
In the present example, eight rhesus monkeys (4 females, 4 males) were trained to respond under a schedule of i.v. midazolam (a conventional benzodiazepine) injection at 0.03 mg/kg/injection. Once self-administration had been acquired (>20 injections/daily 2-hour sessions), monkeys were trained under the PR schedule as described by Shinday et al. (2013). Daily experimental sessions consisted of five components, each made up of four trials (i.e., 20 trials total). […]
In order to directly compare lorazepam and TPA023B self-administration, we here analyzed BP values at the doses that maintained the highest level of mean injections/session and compared these BP values with those obtained after vehicle tests.

[3] = target: α1 subunit-containing GABAA receptors (Homo sapiens, UniProt P14867+P18507); set-up: key to Subtype α1: act as partial positive modulators for particular subtype combinations; none: zero efficacy (i.e., antagonism) at other subtypes; conditions: cited from earlier work
Sequence of α1 subunit-containing GABAA receptors (P14867 28-456): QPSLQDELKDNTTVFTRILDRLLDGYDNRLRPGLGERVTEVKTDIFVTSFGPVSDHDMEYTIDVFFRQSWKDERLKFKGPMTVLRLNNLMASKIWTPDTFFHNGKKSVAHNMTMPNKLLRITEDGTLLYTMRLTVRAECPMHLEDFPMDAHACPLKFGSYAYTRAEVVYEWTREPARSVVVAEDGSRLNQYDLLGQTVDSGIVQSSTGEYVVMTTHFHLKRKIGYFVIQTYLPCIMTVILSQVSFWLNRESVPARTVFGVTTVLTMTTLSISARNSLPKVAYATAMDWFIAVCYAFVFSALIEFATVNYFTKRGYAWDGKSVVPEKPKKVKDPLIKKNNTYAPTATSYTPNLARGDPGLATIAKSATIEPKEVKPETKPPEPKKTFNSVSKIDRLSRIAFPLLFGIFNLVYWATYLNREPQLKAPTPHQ
Sequence of α1 subunit-containing GABAA receptors (P18507 40-475): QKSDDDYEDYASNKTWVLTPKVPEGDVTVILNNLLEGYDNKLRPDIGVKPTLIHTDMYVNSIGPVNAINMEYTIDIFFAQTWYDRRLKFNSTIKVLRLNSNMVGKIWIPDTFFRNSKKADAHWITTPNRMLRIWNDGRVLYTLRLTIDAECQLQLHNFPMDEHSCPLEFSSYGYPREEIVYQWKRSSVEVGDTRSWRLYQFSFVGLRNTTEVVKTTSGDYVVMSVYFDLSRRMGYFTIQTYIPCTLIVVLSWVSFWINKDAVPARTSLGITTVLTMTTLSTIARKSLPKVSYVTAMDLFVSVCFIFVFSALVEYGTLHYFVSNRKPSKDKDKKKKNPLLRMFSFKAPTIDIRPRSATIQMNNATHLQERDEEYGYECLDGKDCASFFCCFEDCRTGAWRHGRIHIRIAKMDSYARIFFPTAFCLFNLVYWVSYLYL
Sequence of α1 subunit-containing GABAA receptors (P28472 26-473 partner): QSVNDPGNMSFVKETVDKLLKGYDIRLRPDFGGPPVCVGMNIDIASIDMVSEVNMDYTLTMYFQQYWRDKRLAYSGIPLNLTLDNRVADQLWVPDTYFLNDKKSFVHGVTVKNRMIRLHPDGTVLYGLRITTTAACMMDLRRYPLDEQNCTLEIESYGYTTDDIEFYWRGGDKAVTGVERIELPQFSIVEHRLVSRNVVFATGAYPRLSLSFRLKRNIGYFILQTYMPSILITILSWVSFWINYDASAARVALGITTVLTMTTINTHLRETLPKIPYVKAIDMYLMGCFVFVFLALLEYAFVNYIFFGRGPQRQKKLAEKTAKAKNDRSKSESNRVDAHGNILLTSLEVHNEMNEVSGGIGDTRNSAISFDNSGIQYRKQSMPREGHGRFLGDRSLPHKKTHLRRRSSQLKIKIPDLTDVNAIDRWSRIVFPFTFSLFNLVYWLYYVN

[4] = target: α3 subunit-containing GABAA receptors (Homo sapiens, UniProt P18507+P34903); set-up: key: act as partial positive modulators for particular subtype combinations; none: zero efficacy (i.e., antagonism) at other subtypes; conditions: cited from earlier work
Sequence of α3 subunit-containing GABAA receptors (P34903 29-492): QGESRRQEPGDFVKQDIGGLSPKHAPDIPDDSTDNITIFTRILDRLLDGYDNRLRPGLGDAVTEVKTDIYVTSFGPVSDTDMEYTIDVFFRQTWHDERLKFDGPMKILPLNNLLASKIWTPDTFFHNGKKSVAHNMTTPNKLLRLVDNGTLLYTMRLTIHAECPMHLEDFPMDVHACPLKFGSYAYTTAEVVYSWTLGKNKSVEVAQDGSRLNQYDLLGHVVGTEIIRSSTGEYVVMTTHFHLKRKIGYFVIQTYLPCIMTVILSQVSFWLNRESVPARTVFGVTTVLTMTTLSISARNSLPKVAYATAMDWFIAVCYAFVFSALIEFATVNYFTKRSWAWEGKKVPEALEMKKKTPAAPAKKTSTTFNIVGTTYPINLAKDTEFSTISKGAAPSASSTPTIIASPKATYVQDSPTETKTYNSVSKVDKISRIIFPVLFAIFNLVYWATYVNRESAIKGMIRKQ
Sequence of α3 subunit-containing GABAA receptors (P18507 40-475): as the sequence (P18507 40-475) above
Sequence of α3 subunit-containing GABAA receptors (P28472 26-473 partner): as the sequence (P28472 26-473 partner) above

[5] = set-up: key to Pharmacokinetics: “poor” - low bioavailability and/or short half-life; “good” - potent with long half-life; conditions: in vivo; cited from earlier work
[6] = target: α5 subunit-containing GABAA receptors (Homo sapiens, UniProt P18507+P31644); set-up: key to Subtype α5: act as partial positive modulators for particular subtype combinations; none: zero efficacy (i.e., antagonism) at other subtypes; conditions: cited from earlier work
Sequence of α5 subunit-containing GABAA receptors (P31644 32-462): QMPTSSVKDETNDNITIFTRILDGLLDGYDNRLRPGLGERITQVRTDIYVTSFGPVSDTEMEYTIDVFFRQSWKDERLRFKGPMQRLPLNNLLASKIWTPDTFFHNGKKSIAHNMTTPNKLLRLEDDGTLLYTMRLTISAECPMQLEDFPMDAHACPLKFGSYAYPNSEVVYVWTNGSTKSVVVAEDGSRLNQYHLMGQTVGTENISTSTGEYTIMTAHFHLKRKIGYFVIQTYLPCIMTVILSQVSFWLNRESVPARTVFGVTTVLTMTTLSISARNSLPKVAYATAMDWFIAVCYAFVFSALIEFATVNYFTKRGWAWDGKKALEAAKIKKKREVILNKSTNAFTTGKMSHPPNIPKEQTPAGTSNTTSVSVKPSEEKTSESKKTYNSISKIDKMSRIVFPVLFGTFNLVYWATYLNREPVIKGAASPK
Sequence of α5 subunit-containing GABAA receptors (P18507 40-475): as the sequence (P18507 40-475) above
Sequence of α5 subunit-containing GABAA receptors (P28472 26-473 partner): as the sequence (P28472 26-473 partner) above

[7] = target: α2 subunit-containing GABAA receptors (Homo sapiens, UniProt P18507+P47869); set-up: key: act as partial positive modulators for particular subtype combinations; none: zero efficacy (i.e., antagonism) at other subtypes; conditions: cited from earlier work
Sequence of α2 subunit-containing GABAA receptors (P47869 29-451): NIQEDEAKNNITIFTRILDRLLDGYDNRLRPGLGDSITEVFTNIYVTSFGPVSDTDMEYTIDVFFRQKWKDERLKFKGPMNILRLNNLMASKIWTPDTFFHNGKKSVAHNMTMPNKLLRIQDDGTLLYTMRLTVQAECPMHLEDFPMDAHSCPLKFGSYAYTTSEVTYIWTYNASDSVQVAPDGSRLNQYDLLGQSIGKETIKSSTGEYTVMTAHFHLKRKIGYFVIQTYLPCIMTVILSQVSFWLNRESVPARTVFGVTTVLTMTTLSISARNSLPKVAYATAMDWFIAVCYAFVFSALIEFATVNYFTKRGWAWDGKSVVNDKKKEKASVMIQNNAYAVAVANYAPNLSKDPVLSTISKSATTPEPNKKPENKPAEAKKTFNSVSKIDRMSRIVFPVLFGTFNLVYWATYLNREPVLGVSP
Sequence of α2 subunit-containing GABAA receptors (P18507 40-475): as the sequence (P18507 40-475) above
Sequence of α2 subunit-containing GABAA receptors (P28472 26-473 partner): as the sequence (P28472 26-473 partner) above

[8] = test system: patients with Generalized Anxiety Disorder; conditions: cited from earlier work
GABAA receptor subtypes = conditions: cited from earlier work
[9] = rhesus monkey, cited from earlier work
rats = experiment: Blockade of diazepam suppression of responding (30 min pretreatment); format: in vivo, rat; conditions: ligand 3.0 mg/kg; diazepam 30 min pretreatment; FIG. 12A; N=5
Description: This profile is very similar to that of TPA023B despite the structural differences. […] For both compounds, we chose 3.0 mg/kg, i.p., in rats based on published literature or pilot studies in our laboratories.
FIGS. 12A and 12B illustrate the results of acute dependency testing using these compounds.

Sprague-Dawley rats = experiment: Precipitated withdrawal/acute dependence: responding 60 min after diazepam bolus; format: in vivo, rat; conditions: ligand 3.0 mg/kg; FIG. 12B; N=5
Description: Acute dependence can occur after single exposures to the benzodiazepine chlordiazepoxide, but not to an α2/3GABAA selective ligand (Fischer et al. 2013, Psychopharmacology 227: 347-54). Here, the extent to which TPA023B can precipitate withdrawal in rats following a single, large bolus dose of diazepam was studied. […] Once rates of responding were stable, doses of diazepam, the non-selective benzodiazepine antagonist flumazenil, and TPA023B were administered prior to the session.

SMILES	Subtype α1 [3]	Subtype α3 [4]	Pharmacokinetics [5]	Subtype α5 [6]	Subtype α2 [7]	further results
Cc1nnc2n1-c1ccc(Cl)cc1C(c1ccccc1Cl)=NC2 [triazolam, reference compound]						accuracy in DMTS and SOSS tasks (rhesus monkeys [1]): significantly reduced accuracy
O=C1Nc2ccc(Cl)cc2C(c2ccccc2Cl)=NC1O (centres unmarked) [lorazepam, reference compound]						median break point (BP), highest response requirement (rhesus monkeys [2]): 320
CCn1ncnc1COc1nn2c(-c3ccccc3F)nnc2cc1C(C)(C)C [TPA023]	none	partial	good	none	partial	efficacy at α1GABAA subtype [3]: no efficacy; adverse effects leading to halt in Phase II ([8]; human, in vivo): cataract development; anxiolysis in patients with Generalized Anxiety Disorder ([8]; post hoc analyses, three clinical trials): significant anxiolysis
CC(C)(O)c1ccn2c(-c3ccc(F)c(-c4cccnc4)c3)cnc2n1 [MRK-623]	none	partial	poor	none	partial	functional/subtype selectivity (GABAA receptor subtypes): α2/3GABAA subtype selective; bioavailability (in words) ([9]; in vivo): fair; half-life [9]: 30 min; ability of diazepam to suppress rates of responding (rats): blocked; rates of responding after 60-min pretreatment of diazepam (acute dependence) (Sprague-Dawley rats): neither L-838,417 nor MRK-623 altered rates of responding
